Results published in ChEMBL document CHEMBL3045006, “Synthesis and anticonvulsant activity of 8-alkoxy-5,6-dihydro-4H-benzo[f][1,2,4]triazolo[4,3-a]azepine derivatives” (Med Chem Res, 2012).
Active and inactive are the calls of the source. The calls are words filed in the database; no cut-off is given here.

What was measured:
Mus musculus [1] = assay: Anticonvulsant activity against subcutaneous pentylenetetrazole-induced seizures in ip dosed Mus musculus Swiss (mouse) at 30 mg/kg, ip measured at phase 2; format: functional; conditions: sc
Mus musculus [2] = assay: Protective index, ratio of TD50 for Mus musculus Swiss (mouse) to ED50 for Mus musculus Swiss (mouse) by subcutaneous pentylenetetrazole-induced seizure test; format: functional
Mus musculus [3] = species on record: Mus musculus; assay: Protective index, ratio of TD50 for Mus musculus Swiss (mouse) to ED50 for Mus musculus Swiss (mouse) by maximal electroshock-induced seizure test; format: functional
[4] = (§1) Neurotoxicity in ip dosed Mus musculus Swiss (mouse) assessed as minimum motor impairment by rotarod test; format: toxicity, organism-based; conditions: Swiss, in vivo
Mus musculus [5] = assay: Anticonvulsant activity against maximal electroshock-induced seizures in ip dosed Mus musculus Swiss (mouse) administered 30 min before MES induction measured at phase 2; format: functional
Mus musculus [6] = assay: Anticonvulsant activity against subcutaneous pentylenetetrazole-induced seizures in Mus musculus Swiss (mouse) at 100 mg/kg, ip measured at phase 1; format: functional, organism-based; parameters: dose 100 mg/kg
Mus musculus [7] = assay: Anticonvulsant activity against subcutaneous pentylenetetrazole-induced seizures in Mus musculus Swiss (mouse) at 30 mg/kg, ip measured at phase 1; format: functional, organism-based; parameters: dose 30 mg/kg
Mus musculus [8] = assay: Anticonvulsant activity against maximal electroshock-induced seizures in Mus musculus Swiss (mouse) at 100 mg/kg, ip administered 30 min before MES induction measured at phase 1; format: functional, organism-based; parameters: dose 100 mg/kg
Mus musculus [9] = assay: as §1; format: toxicity, organism-based; conditions: in vivo
Mus musculus [10] = assay: Anticonvulsant activity against maximal electroshock-induced seizures in Mus musculus Swiss (mouse) at 30 mg/kg, ip administered 30 min before MES induction measured at phase 1; format: functional, organism-based; parameters: dose 30 mg/kg
Mus musculus [11] = assay: Anticonvulsant activity against maximal electroshock-induced seizures in Mus musculus Swiss (mouse) at 300 mg/kg, ip administered 30 min before MES induction measured at phase 1; format: functional, organism-based; parameters: dose 300 mg/kg

For `O=C1NC(=O)C(c2ccccc2)(c2ccccc2)N1` [PHENYTOIN], the ED50 (Mus musculus [1]) was over 300 mg/kg.
With `Clc1ccc(COc2ccc3c(c2)CCCc2nncn2-3)cc1` the “Ratio TD50/ED50” value (Mus musculus [2]) was 1.4, the “Ratio TD50/ED50” value (Mus musculus [3]) was 3.7 and the TD50 [4] was 98.6 mg/kg. For the same molecule, the ED50 (Mus musculus [1]) was 68.2 mg/kg, the ED50 (Mus musculus [5]) was 27.4 mg/kg and the Activity (Mus musculus [6]) was “Active”. The Activity (Mus musculus [7]) was “inactive” and the Activity (Mus musculus [8]) was “Active”.
Work on `CCCC(CCC)C(=O)O` [VALPROIC ACID] yielded an ED50 (Mus musculus [1]) of 149 mg/kg.
In the case of `CCC1(c2ccccc2)C(=O)NC(=O)NC1=O` [PHENOBARBITAL], the ED50 (Mus musculus [1]) is reported as 13.2 mg/kg and the ED50 (Mus musculus [5]) is reported as 21.8 mg/kg.
For `CCCOc1ccc2c(c1)CCCc1nncn1-2`, the TD50 (Mus musculus [9]) was “Not Active”, the ED50 (Mus musculus [1]) was over 100 mg/kg and the ED50 (Mus musculus [5]) was 73.3 mg/kg. The Activity (Mus musculus [6]) was “inactive”, the Activity (Mus musculus [7]) was “inactive” and the Activity (Mus musculus [8]) was “Active”.
With `Cc1ccc(COc2ccc3c(c2)CCCc2nncn2-3)cc1` the “Ratio TD50/ED50” value (Mus musculus [2]) was 1.1, the “Ratio TD50/ED50” value (Mus musculus [3]) was 3.6 and the TD50 [4] was 82.9 mg/kg. For the same molecule, the ED50 (Mus musculus [1]) was 90.1 mg/kg, the ED50 (Mus musculus [5]) was 27.4 mg/kg and the Activity (Mus musculus [6]) was “inactive”. For the same molecule, the Activity (Mus musculus [7]) was “inactive” and the Activity (Mus musculus [8]) was “Active”.
In the case of `Fc1ccc(COc2ccc3c(c2)CCCc2nncn2-3)cc1`, the “Ratio TD50/ED50” value (Mus musculus [2]) is reported as 2.1, the “Ratio TD50/ED50” value (Mus musculus [3]) is reported as 3.6 and the TD50 [4] is reported as 97.4 mg/kg. The ED50 (Mus musculus [1]) was 47.3 mg/kg, the ED50 (Mus musculus [5]) was 27.4 mg/kg and the Activity (Mus musculus [6]) was “Active”. The Activity (Mus musculus [8]) was “Active”.
For `Clc1ccccc1COc1ccc2c(c1)CCCc1nncn1-2`, the “Ratio TD50/ED50” value (Mus musculus [2]) was under 0.7, the “Ratio TD50/ED50” value (Mus musculus [3]) was 3.4 and the TD50 [4] was 70.9 mg/kg. For the same molecule, the ED50 (Mus musculus [1]) was over 100 mg/kg, the ED50 (Mus musculus [5]) was 20.5 mg/kg and the Activity (Mus musculus [6]) was “inactive”. For the same molecule, the Activity (Mus musculus [7]) was “inactive” and the Activity (Mus musculus [10]) was “Active”.
In the case of `Fc1ccccc1COc1ccc2c(c1)CCCc1nncn1-2`, the “Ratio TD50/ED50” value (Mus musculus [2]) is reported as 2.4, the “Ratio TD50/ED50” value (Mus musculus [3]) is reported as 4.5 and the TD50 [4] is reported as 84.9 mg/kg. The ED50 (Mus musculus [1]) was 35.4 mg/kg, the ED50 (Mus musculus [5]) was 19 mg/kg and the Activity (Mus musculus [6]) was “Active”. The Activity (Mus musculus [10]) was “Active”.
With `CCCCCCOc1ccc2c(c1)CCCc1nncn1-2` the “Ratio TD50/ED50” value (Mus musculus [2]) was 3.4, the “Ratio TD50/ED50” value (Mus musculus [3]) was 4.8 and the TD50 [4] was 84.2 mg/kg. For the same molecule, the ED50 (Mus musculus [1]) was 24.6 mg/kg, the ED50 (Mus musculus [5]) was 17.7 mg/kg and the Activity (Mus musculus [10]) was “Active”.
For `Clc1cccc(COc2ccc3c(c2)CCCc2nncn2-3)c1`, the “Ratio TD50/ED50” value (Mus musculus [2]) was 1.5, the “Ratio TD50/ED50” value (Mus musculus [3]) was 4.1 and the TD50 [4] was 120 mg/kg. For the same molecule, the ED50 (Mus musculus [1]) was 80.7 mg/kg, the ED50 (Mus musculus [5]) was 29.5 mg/kg and the Activity (Mus musculus [6]) was “Active”. The Activity (Mus musculus [7]) was “inactive” and the Activity (Mus musculus [8]) was “Active”.
In the case of `CCCCCOc1ccc2c(c1)CCCc1nncn1-2`, the “Ratio TD50/ED50” value (Mus musculus [2]) is reported as 5.4, the “Ratio TD50/ED50” value (Mus musculus [3]) is reported as 6.5 and the TD50 [4] is reported as 114 mg/kg. The ED50 (Mus musculus [1]) was 21.2 mg/kg, the ED50 (Mus musculus [5]) was 17.5 mg/kg and the Activity (Mus musculus [7]) was “Active”. The Activity (Mus musculus [10]) was “Active”.
For `COc1ccc2c(c1)CCCc1nncn1-2`, the Activity (Mus musculus [6]) was “inactive”, the Activity (Mus musculus [7]) was “inactive” and the Activity (Mus musculus [11]) was “Active”. The Activity (Mus musculus [10]) was “Active”.
With `NC(=O)N1c2ccccc2C=Cc2ccccc21` [CARBAMAZEPINE] the ED50 (Mus musculus [1]) was over 100 mg/kg and the ED50 (Mus musculus [5]) was 8.8 mg/kg.
With `CCCCOc1ccc2c(c1)CCCc1nncn1-2` the “Ratio TD50/ED50” value (Mus musculus [2]) was 2, the “Ratio TD50/ED50” value (Mus musculus [3]) was 3.5 and the TD50 [4] was 73.3 mg/kg. For the same molecule, the ED50 (Mus musculus [1]) was 36.7 mg/kg, the ED50 (Mus musculus [5]) was 21.2 mg/kg and the Activity (Mus musculus [6]) was “Active”. The Activity (Mus musculus [10]) was “Active”.
For `CCCCCCCOc1ccc2c(c1)CCCc1nncn1-2`, the “Ratio TD50/ED50” value (Mus musculus [2]) was 2.6, the “Ratio TD50/ED50” value (Mus musculus [3]) was 3.5 and the TD50 [4] was 68.4 mg/kg. For the same molecule, the ED50 (Mus musculus [1]) was 26.4 mg/kg, the ED50 (Mus musculus [5]) was 19.7 mg/kg and the Activity (Mus musculus [6]) was “Active”. The Activity (Mus musculus [10]) was “Active”.
In the case of `Brc1ccc(COc2ccc3c(c2)CCCc2nncn2-3)cc1`, the “Ratio TD50/ED50” value (Mus musculus [2]) is reported as 0.9, the “Ratio TD50/ED50” value (Mus musculus [3]) is reported as 3 and the TD50 [4] is reported as 96.2 mg/kg. The ED50 (Mus musculus [1]) was over 100 mg/kg, the ED50 (Mus musculus [5]) was 27 mg/kg and the Activity (Mus musculus [6]) was “Active”. The Activity (Mus musculus [7]) was “inactive” and the Activity (Mus musculus [8]) was “Active”.
Molecule `Fc1cccc(COc2ccc3c(c2)CCCc2nncn2-3)c1` has a TD50 [4] of over 100 mg/kg, an ED50 (Mus musculus [1]) of over 100 mg/kg and an ED50 (Mus musculus [5]) of 27.4 mg/kg. The Activity (Mus musculus [6]) was “Active”, the Activity (Mus musculus [7]) was “inactive” and the Activity (Mus musculus [8]) was “Active”.
In the case of `c1ccc(COc2ccc3c(c2)CCCc2nncn2-3)cc1`, the “Ratio TD50/ED50” value (Mus musculus [2]) is reported as 1, the “Ratio TD50/ED50” value (Mus musculus [3]) is reported as 3.3 and the TD50 [4] is reported as 78.9 mg/kg. The ED50 (Mus musculus [1]) was 78.9 mg/kg, the ED50 (Mus musculus [5]) was 23.7 mg/kg and the Activity (Mus musculus [6]) was “Active”. The Activity (Mus musculus [7]) was “inactive” and the Activity (Mus musculus [10]) was “Active”.
